The subject of data set [1] is brain PMPMEase. It counts as biochemical, porcine.
Data set [2] has as its target T1, Purified PMPMEase (Sus scrofa, UniProt Q29550).
T1 construct: from tissue; host or cells: porcine liver supernatant, purified by column chromatography
T1 sequence (Q29550 19-566): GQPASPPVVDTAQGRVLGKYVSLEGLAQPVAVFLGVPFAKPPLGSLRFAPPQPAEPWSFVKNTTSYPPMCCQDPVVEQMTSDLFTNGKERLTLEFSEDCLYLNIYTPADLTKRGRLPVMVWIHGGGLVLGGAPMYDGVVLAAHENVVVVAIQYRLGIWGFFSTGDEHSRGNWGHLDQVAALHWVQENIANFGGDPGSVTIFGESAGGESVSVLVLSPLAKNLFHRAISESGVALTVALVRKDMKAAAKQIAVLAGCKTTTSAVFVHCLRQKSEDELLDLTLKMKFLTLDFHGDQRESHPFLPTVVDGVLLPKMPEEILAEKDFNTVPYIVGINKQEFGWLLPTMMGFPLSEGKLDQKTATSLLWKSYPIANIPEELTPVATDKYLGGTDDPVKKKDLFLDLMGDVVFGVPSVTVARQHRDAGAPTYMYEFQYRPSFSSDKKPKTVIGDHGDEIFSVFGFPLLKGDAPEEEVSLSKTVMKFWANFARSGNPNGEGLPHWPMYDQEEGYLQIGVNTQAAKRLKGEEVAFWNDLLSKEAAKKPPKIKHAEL
It counts as biochemical, porcine.

Data set [3] concerns liver PMPMEase. It counts as biochemical, porcine.
Data set [4] addresses T2, porcine liver PMPMEase (Sus scrofa, UniProt Q29550).
T2 construct: the supernatant fraction was prepared from 100 g of porcine liver; from tissue; host or cells: porcine liver 40,000×g supernatant
T2 sequence (Q29550 19-566): T1 sequence (Q29550 19-566)
The data set can be described thus: PMPMEase inhibition assay of PMSF, GESF and FESF (IC50). It counts as biochemical. The settings on record: for increase in potency relative to PMSF: ratio of IC50 values vs PMSF.

Data set [5] in a line: Aqueous solubility (statement). It counts as physicochemical.
Where [6] appears, read: 0.01 mM compound, 20 min preincubation at 37° C., HCFCM 1 mM.
[7] abbreviates: 1 mM compound, 20 min preincubation at 37° C., HCFCM 1 mM.

Read-outs that look alike come from different tables or passages of the source. Peptide text beside a SMILES is read from it. * marks the point of attachment. MeOSuc = COC(=O)CCC(=O)*; CH2Cl = ClC* Some results are limits rather than exact numbers.

On to `CCOP(=O)(OCC)Oc1ccc([N+](=O)[O-])cc1` [Paraoxon], for which the “Brain Mean (mean percent inhibition relative to the controls)” value in data set [1] is reported as 87%. The “Residual activity (% of Control, SEM, n = 3) 0.01 mM” value in data set [2] (setting [6]) is 0 ± 0 % of Control. For the same compound, the “Residual activity (% of Control, SEM, n = 3) 1 mM” value in data set [2] (setting [7]) is listed as 0 ± 0 % of Control. Also, in data set [3], the “Liver Mean (mean percent inhibition relative to the controls)” value was 100%.

As for `CC(C)=CCC/C(C)=C/CC/C(C)=C/CC/C(C)=C/CS(=O)(=O)F` [GGESF, S-geranylgeranyl sulfonyl fluoride], the “higher potency than FESF (concluded from the data, not tested)” value in data set [4] (predicted vs FESF) is on record as 2 fold.

In the case of `CC(C)CC(N)C(=O)CCl` [L-Leu chloromethyl ketone (CMK)], in data set [2], the “Residual activity (% of Control, SEM, n = 3) 0.01 mM” value is recorded as 93.3 ± 1.0 % of Control and the “Residual activity (% of Control, SEM, n = 3) 1 mM” value is 60.4 ± 1.9 % of Control.

Regarding `Cc1ccc(S(=O)(=O)N[C@@H](CCCCN)C(=O)CCl)cc1` [Nα-tosyl-L-Lys CMK], in data set [2], the “Residual activity (% of Control, SEM, n = 3) 0.01 mM” value is 98.3 ± 1.9 % of Control and the “Residual activity (% of Control, SEM, n = 3) 1 mM” value is 98.6 ± 7.3 % of Control.

Consider `O=C(C(=O)c1ccccc1)c1ccccc1` [Benzil], for which, in data set [2], the “Residual activity (% of Control, SEM, n = 3) 0.1 mM” value is “*69.4 ± 0.24 % of Control” and the “Residual activity (% of Control, SEM, n = 3) 1 mM” value was 38.0 ± .43 % of Control.

Take `COC(=O)NS(=O)(=O)c1ccc(N)cc1` [Asulam]: in data set [2], the “Residual activity (% of Control, SEM, n = 3) 0.01 mM” value is 113 ± 6.3 % of Control and the “Residual activity (% of Control, SEM, n = 3) 1 mM” value was 91.7 ± 6.9 % of Control.

For `COC(=O)CCC(=O)N[C@@H](C)C(=O)N[C@@H](C)C(=O)N1CCC[C@H]1C(=O)N[C@H](C(=O)CCl)C(C)C` [N- (methoxysuccinyl)-L- Ala-L-Ala-L-Pro-L- Val CMK] (MeOSuc-AAPV-CH2Cl), in data set [2] (setting [6]), the “Residual activity (% of Control, SEM, n = 3) 0.01 mM” value is reported as 105 ± 3.1 % of Control. The “Residual activity (% of Control, SEM, n = 3) 1 mM” value in data set [2] (setting [7]) is recorded as 61.8 ± 2.0 % of Control.

Take `O=C(N[C@@H](Cc1ccccc1)C(=O)CCl)OCc1ccccc1` [N-carbobenzyloxy-L- Phe CMK]: in data set [2], the “Residual activity (% of Control, SEM, n = 3) 0.01 mM” value is given as 94.8 ± 1.3 % of Control and the “Residual activity (% of Control, SEM, n = 3) 1 mM” value was 57.0 ± 2.0 % of Control.

With `CCC(C)C(O)C(C)C(=O)C(C)/C=C(\C)CC(C)C1OC(=O)C1C` (centres unmarked) [Ebelactone A], in data set [2], the “Residual activity (% of Control, SEM, n = 3) 0.01 mM” value was 123 ± 7 % of Control and the “Residual activity (% of Control, SEM, n = 3) 1 mM” value is recorded as 18.3 ± 0.3 % of Control.

Usually IC50 stands for the concentration at which inhibition is half-maximal. Read a low IC50 as higher potency. In the case of `CC(C)=CCC/C(C)=C/CC/C(C)=C/CSCCS(=O)(=O)F` [FESF, S-trans,trans-farnesyl-2-thioethanesulfonyl fluoride], in data set [5], the aqueous solubility result was “not aqueous-soluble”. Besides, in data set [4], half-maximal inhibition (IC50) required 37 ± 0.42 nM and the “increase in potency relative to PMSF” value is recorded as more than 440 fold.

As to `CC(C)=CCC/C(C)=C/CSCCS(=O)(=O)F` [GESF, S-trans-geranyl-2-thioethanesulfonyl fluoride], the aqueous solubility entry in data set [5] is “not aqueous-soluble”. Moreover, in data set [4], the IC50 amounted to 169 ± 6.8 nM and the “increase in potency relative to PMSF” value is “over 97 fold”.

`O=S(=O)(F)Cc1ccccc1` [Phenylmethylsulfonyl fluoride, phenylmethylsulfonyl fluoride]: the “Residual activity (% of Control, SEM, n = 3) 0.01 mM” value in data set [2] (setting [6]) was 79.5 ± 1.8 % of Control. In addition, the “Residual activity (% of Control, SEM, n = 3) 1 mM” value in data set [2] (setting [7]) is recorded as 0 ± 0 % of Control.

As to `CCOC(=O)C(SP(=S)(OC)OC)c1ccccc1` (centres unmarked) [Phenthoate], in data set [1], the “Brain Mean (mean percent inhibition relative to the controls)” value amounted to 55%. The “Liver Mean (mean percent inhibition relative to the controls)” value in data set [3] came to 96%.

Take `CCOP(=S)(OCC)Oc1cc(Cl)c(SC)cc1Cl` [Chlorthiophos]: the “Brain Mean (mean percent inhibition relative to the controls)” value in data set [1] came to 22%. The “Liver Mean (mean percent inhibition relative to the controls)” value in data set [3] is recorded as 52%.

For `CCOP(=S)(OCC)SC1OCCOC1SP(=S)(OCC)OCC` (centres unmarked) [Dioxathion], the “Brain Mean (mean percent inhibition relative to the controls)” value in data set [1] stood at 15%. In addition, the “Liver Mean (mean percent inhibition relative to the controls)” value in data set [3] was 57%.

Turning to `CCOP(=S)(OCC)SCSc1ccc(Cl)cc1` [Carbophenothion], the “Brain Mean (mean percent inhibition relative to the controls)” value in data set [1] came to 55%. Moreover, in data set [3], the “Liver Mean (mean percent inhibition relative to the controls)” value was 49%.

With `CCN(CC)C(=O)/C(Cl)=C(/C)OP(=O)(OC)OC` [Phosphamidon], the “Brain Mean (mean percent inhibition relative to the controls)” value in data set [1] worked out at 53%. The “Liver Mean (mean percent inhibition relative to the controls)” value in data set [3] was 69%.

As to `COP(=O)(OC)OC=C(Cl)Cl` [Dichlorvos], in data set [1], the “Brain Mean (mean percent inhibition relative to the controls)” value turned out to be 81%. Also, the “Liver Mean (mean percent inhibition relative to the controls)” value in data set [3] is on record as 83%.

On to `COP(=S)(OC)Oc1ccc(C#N)cc1` [Cyanophos], for which the “Brain Mean (mean percent inhibition relative to the controls)” value in data set [1] is on record as 65%. The “Liver Mean (mean percent inhibition relative to the controls)” value in data set [3] worked out at 89%.

Take `COP(=S)(OC)Oc1ccc([N+](=O)[O-])cc1` [Methyl-Parathion]: in data set [1], the “Brain Mean (mean percent inhibition relative to the controls)” value is recorded as 75%. The “Liver Mean (mean percent inhibition relative to the controls)” value in data set [3] was 100%.

As for `COP(=O)(OC)O/C(=C/Cl)c1cc(Cl)c(Cl)cc1Cl` [Tetrachlorvinphos], in data set [1], the “Brain Mean (mean percent inhibition relative to the controls)” value is 100%. Besides, in data set [3], the “Liver Mean (mean percent inhibition relative to the controls)” value is reported as 91%.

On to `CCCSP(=S)(OCC)Oc1ccc(Cl)cc1Cl` (centres unmarked) [Tokuthion], for which the “Brain Mean (mean percent inhibition relative to the controls)” value in data set [1] worked out at 100%. Further, the “Liver Mean (mean percent inhibition relative to the controls)” value in data set [3] was found to be 76%.

In the case of `CCOC(=O)CC(SP(=O)(OC)OC)C(=O)OCC` (centres unmarked) [Malaoxon], the “Brain Mean (mean percent inhibition relative to the controls)” value in data set [1] stood at 51%. Besides, in data set [3], the “Liver Mean (mean percent inhibition relative to the controls)” value was 87%.

Turning to Edifenphos, in data set [1], the “Brain Mean (mean percent inhibition relative to the controls)” value came out at 81%. In addition, the “Liver Mean (mean percent inhibition relative to the controls)” value in data set [3] is recorded as 97%.

With `NC(=O)OCc1ccccc1` [Benzyl carbamate], in data set [2], the “Residual activity (% of Control, SEM, n = 3) 0.01 mM” value is on record as 117 ± 11 % of Control and the “Residual activity (% of Control, SEM, n = 3) 1 mM” value is on record as 124 ± 5 % of Control.

As to `COC(=O)/C=C(\C)OP(=O)(OC)OC` [Phosdrin], in data set [1], the “Brain Mean (mean percent inhibition relative to the controls)” value was 67%. Moreover, the “Liver Mean (mean percent inhibition relative to the controls)” value in data set [3] amounted to 70%.

With `CCOP(=S)(OCC)Oc1cc(C)nc(C(C)C)n1` [Diazinon], the “Brain Mean (mean percent inhibition relative to the controls)” value in data set [1] amounted to 31%. Besides, in data set [3], the “Liver Mean (mean percent inhibition relative to the controls)” value turned out to be 95%.

For the compound `CCOP(=S)(OCC)Oc1nc(Cl)c(Cl)cc1Cl` [Chlorpyriphos], in data set [1], the “Brain Mean (mean percent inhibition relative to the controls)” value was determined as 67%. Also, the “Liver Mean (mean percent inhibition relative to the controls)” value in data set [3] is given as 100%.

For `CCC(C)C(O)C(C)C(=O)C(C)/C=C(\C)CC(C)C1OC(=O)C1CC` (centres unmarked) [Ebelactone B], in data set [2], the “Residual activity (% of Control, SEM, n = 3) 0.01 mM” value is 56.4 ± 1.0 % of Control and the “Residual activity (% of Control, SEM, n = 3) 1 mM” value is 0 ± 0 % of Control.

Regarding `COC(=O)/C(C)=C/OP(=S)(OC)OC` [Methacrifos], in data set [1], the “Brain Mean (mean percent inhibition relative to the controls)” value was found to be 61%. Moreover, in data set [3], the “Liver Mean (mean percent inhibition relative to the controls)” value worked out at 87%.

With `CCOP(=S)(OCC)Oc1cc(Cl)c(Br)cc1Cl` [Bromophos-E], the “Brain Mean (mean percent inhibition relative to the controls)” value in data set [1] was 68%. Besides, the “Liver Mean (mean percent inhibition relative to the controls)” value in data set [3] is recorded as 76%.

(Values after patent publication US8097722B2 (priority 2008, dated 2012).)
